Test results: US8541373B2, “BChE albumin fusions for the treatment of cocaine abuse” (priority 2009, dated 2013)

What was measured:
[1] = test system: cocaine-induced reinstatement; experiment: Reinstatement of cocaine self-administration; assay type: in vivo, squirrel monkeys (Saimiri sciureus)
Protocol: (§1) The blood level data were analyzed separately for each metabolite and time point (5 or 30 min). […] The self-administration data were analyzed separately for response rate or injections following either vehicle treatment or AlbuBChE treatment. Control data were included in the analysis by taking the average of the last 3 days for the immediately preceding baseline condition. A within subjects ANOVA was then performed with follow-up tests contrasting days following vehicle or AlbuBChE with the control. For the reinstatement tests, a two-way ANOVA was performed for both response rate and injections, with time post vehicle or AlbuBChE as the within-subjects factor and pretreatment (vehicle or AlbuBChE) as the between subjects factor. Follow-up contrast compared vehicle and AlbuBChE at each time point.

[2] = Clinical study: safety, tolerability and immunogenicity of single IM AlbuBChE; assay type: in vivo, human; details: humans
Protocol: Forty (40) non-treatment seeking healthy adults who have used cocaine are randomly assigned to five (5) treatment groups. Each group will contain eight subjects. • Group A (low dose): Subjects receive a single, intramuscular injection of 50 mg of AlbuBChE. • Group B (intermediate dose): Subjects receive a single, intramuscular injection of 100 mg of AlbuBChE. • Group C (high-intermediate dose): Subjects receive a single, intramuscular injection of 150 mg of AlbuBChE. • Group D (high dose): Subjects receive a single, intramuscular injection of 300 mg of AlbuBChE. • Group E (negative control): Subjects receive a single, intramuscular injection of placebo.
Vital signs, including blood pressure, heart rate (part of the PD parameters) and body temperature are monitored. […]. Telemetry is performed for 4 hours immediately after each cocaine injection.
Local tolerability and pain (evaluated by the visual analogue scale (VAS)) at the injection site are evaluated during the first 24 h after dosing. Timepoints are: 20 min, 1, 2, 4, 8 and 24 hours post AlbuBChE dose.
Samples for immunogenic levels are collected but are not all necessarily assayed. Titers for antibodies against HSA, human butyryl cholinesterase (hBChE) and AlbuBChE are evaluated. Sampling timepoints are: pre-dose and 168 hours (Day 8), 240 hours (Day 11) and follow-up (Day 18±2) post-dose. The blood tests for IG assays take place before administration of cocaine (where relevant).

[3] = test system: cocaine subjective effects; experiment: Clinical study: subjective effects of cocaine (visual analogue scale); assay type: in vivo, human; details: humans
Protocol: Subjective effects are measured using a computerized (21 CFR 11 validated) visual analogue scale (VAS). The time points for collection of subjective effects match with those for cocaine blood samples. The following set of VAS are: Drug Liking, Take Drug Again, Overall Drug Liking, High, Good Effects, Bad Effects, Feeling Rush, Desire for Cocaine, Feeling Anxious, Over-Stimulated, and Any Drug Effects.
PD sampling timepoints of VAS parameters after each cocaine dose are as follows: pre-dose, 2, 5, 10, 15, 30, 45, 60, 90, and 120 minutes post dose.

[4] = test system: cocaine self-administration; experiment: Cocaine self-administration; assay type: in vivo, squirrel monkeys (Saimiri sciureus)
From the text: Adult male squirrel monkeys (Saimiri sciureus) weighing 0.8 to 1.2 kg were used as subjects. All monkeys were individually housed in a humidity and temperature controlled room and had free access to water. The monkeys were fed following any experimental procedures an amount of food (Lab Diet 5045, PMI Nutrition International, Richmond, Ind.; Banana Softies, Bio-Serv, Frenchtown, N.J.) determined to maintain a stable weight. Fresh fruit, vegetables and environmental enrichment were also provided daily. The animal care facilities were fully accredited by AAALAC and all experiments were approved by the NIDA Intramural Research Program Animal Care and Use Committee.
Three monkeys were trained to self-administer 30 μg/kg/inj i.v. cocaine. Details of the self-administration training procedure can be found elsewhere (Justinova et al., 2003). In brief, the monkeys were placed in a seated position in a Plexiglas restraint chair. The chair was enclosed in a larger acoustical chamber. On the front wall of the restraint chair there was a response lever and stimulus lights. A green light signaled the beginning of the session. The monkeys were trained to make 10 responses (fixed-ratio, FR, 10) to receive an i.v. injection of cocaine. The injection of cocaine was accompanied by the green light, turning off and a yellow stimulus light being presented for 2 sec. Following each cocaine injection there was also a 60-sec timeout. At the end of the timeout, the green light was turned on. Sessions lasted for 1 hour. Occasionally, saline was substituted for cocaine. Following the establishment of stable cocaine self-administration and reliable extinction of responding following saline substitution, AlbuBChE (5 mg/kg, i.m.) or its vehicle (i.m.) were given 2 hours prior to a self-administration session. Self-administration responding was then measured for 5 consecutive days. Following each drug test or saline substitution, responding for 30 μg/kg/inj cocaine was reestablished for at least 5 days. Following reinstatement testing (see below), the dose of cocaine available for self-administration was lowered to 10 μg/kg/inj and the effect of AlbuBChE (5 mg/kg, i.m.) was again determined.
as §1

[5] = 5 mg/kg i.m., 30 μg/kg/inj cocaine, tracked 5 days

## AlbuBChE
[1]; 5 mg/kg i.m., 0.3 mg/kg cocaine i.v., 2 hr time point
  Reinstatement of responding (response rate and injections): significantly blocked
[1]; 5 mg/kg, 0.1 mg/kg cocaine as reinstatement dose
  Reinstatement of responding (responses and injections): significant at 2 hrs
[2]
  Local tolerability and pain at the IM injection site: acceptable
[2]; 50 mg to 300 mg single dose
  Immune response: does not provoke a significant immune response
[2]; IM doses of 50 mg to 300 mg
  Safety: No significant safety issues are observed
  Tolerability: well tolerated
[2]; intramuscular injection
  Blood pressure after AlbuBChE: a significant increase in blood pressure is not observed
[3]; following cocaine exposure
  VAS Bad Effects: reduces the feeling of “bad effects”
[3]; single administration
  Duration of decreased desire to use cocaine: up to one week
[3]; vs placebo
  VAS Any Drug Effects: reduces the reporting of “any drug effects.”
  VAS Desire for Cocaine: decreases the desire for cocaine
  VAS Drug Liking: decreases cocaine liking
  VAS Feeling Anxious: reduces feelings of anxiousness
  VAS Feeling Rush: decreases subjective feeling of “rush”
  VAS Good Effects: decreases the subjective feeling of “good effects”
  VAS High: decreases the “high”
  VAS Over-Stimulated: reduces feelings of being over-stimulated
  VAS Overall Drug Liking: decreases overall drug liking
  VAS Take Drug Again: decreases the desire to take cocaine again
[4]; 30 μg/kg/inj cocaine, reduced effectiveness
  Duration of effect on cocaine self-administration: ≥ 3 days
[4]; 5 mg/kg i.m., 30 μg/kg/inj cocaine
  Cocaine self-administration: reduced self-administration
[4]; [5]
  Self-administration injections vs baseline: significantly different from control on day 1 and 4
  Self-administration response rate vs baseline: different from control on days 1-4
[4]; 5 mg/kg, 10 μg/kg/inj cocaine, 2 hrs following AlbuBChE
  Self-administration response rate and injections: failed to reach significance
